Data as given in US6498005B1, “Homogeneous assay methods” (Caliper Technologies Corp., priority 1998, dated 2002).

What was measured:
PKA = PKA (Bos taurus, UniProt P00517); assay: PKA assays at different ATPγS concentrations on a microchip; format: biochemical; settings: read-out: Km (Michaelis-Menten constant for the co-factor)
Protocol: (§1) A typical reaction mixture (50 μl) contained 20 mM HEPES pH 7.5, 10 mM MgCl2, 50 μM fluorescein labeled Kemptide (Research Genetics, Huntsville, Ala., USA), 500 μM ATPγS (Sigma, St. Louis, Mo., USA, #A-1388), and 1 μl of the catalytic subunit of cAMP dependent protein kinase A (Promega Corp., Madison, Wis., USA, #V5161). The approximate final concentration of the enzyme was 700 nM. […] The mixture was incubated at room temperature for 15 min and the reaction terminated by the addition of EDTA to 45 mM. As a negative control, EDTA was added to one of the reaction mixtures before the addition of the kinase. The extent of thiophosphorylation was then analyzed by capillary electrophoresis with fluorescence detection either on a Beckman P/ACE System 5500 instrument, using a 50 μm fused silica capillary with 50 mM borate, pH 8.6 as the separation buffer, or on a microfabricated chip as described in Cohen et al., Anal. Chem. 273:89-97 (1999). Substrate and product peak areas were integrated and the extent of substrate phosphorylation was determined from their ratio.
Following a 15-min incubation, the reactions were stopped by the addition of EDTA, treated with iodoacetyl-LC-biotin, and analyzed by fluorescence polarization in the presence of streptavidin. […]

[1] = target: T1, catalytic subunit of cAMP dependent protein kinase A (PKA) (Bos taurus, UniProt P00517); assay: Homogeneous PKA kinase assay: thiophosphorylation, biotinylation, fluorescence polarization with streptavidin; format: biochemical
T1 construct: purchased Promega Corp. V5161
Protocol: as §1, with “ratio. […] The outcome of the biotinylation reaction could be determined at this point by capillary electrophoresis as described above, however, this is not required, nor is it preferred. […] An aliquot (1 μl) of the biotinylation reaction from step B was diluted in 400 μl of 50 mM HEPES, pH 7.4 and its fluorescence polarization measured. […]” for “ratio.”

Row | Structure (SMILES) | Km (PKA) [µM] | IC50 ([1]; H-89 0.5-10 μM, 500 μM ATPγS, 50 μM fluorescein labeled Kemptide, 15-min incubation at room temperature, estimated from substrate conversion) [nM] | Ki ([1]; calculated from IC50=Ki(1+[S]/Km), ATPγS 500 μM, Km about 6 μM) [nM]
1 | Nc1ncnc2c1ncn2[C@@H]1O[C@H](COP(=O)(O)OP(=O)(O)OP(O)(O)=S)[C@@H](O)[C@H]1O [ATPγS] | ~6 |  | 
2 | O=S(=O)(NCCNC/C=C/c1ccc(Br)cc1)c1cccc2cnccc12 [H-89] |  | ~5000 | ~60
